Structures can show the parent of a compound that is named as a salt. Where two headings read alike, the source gives them in different places.
Legend:
[1] = Autoclave stability of cationic agents in packaging solution
Experimental: (§1) As used herein, a cationic agent is considered to be autoclave-stable in a given package and packaging solution if there is less than 2% degradation of the cationic agent after it is autoclaved two times in its intended package and packaging solution without a lens present, wherein the autoclave conditions used are 120° C. for 30 minutes at about 17 psi. A reference to 2× or 3× autoclave of a package is intended to include a step of allowing the package to cool to room temperature before and after the 2nd, and if applicable, 3rd autoclave treatments. The amount of degradation is determined using an HPLC method appropriate for the cationic agent being tested. Alternatively or additionally, a cationic agent is considered autoclave-stable in a given packaging solution if the percentage of cationic agent that can be extracted from the lens after 2× autoclave is more than 95% of the percentage of cationic agent that can be extracted from a non-autoclaved lens packaged in the same packaging solution and kept at room temperature for 24 hours, where the extraction method used is substantially as described in Example 4, or an equivalent method. The percentage of cationic agent extracted from the autoclaved (test) and non-autoclaved (control) lenses is determined relative to the amount of cationic agent taken up by the test and control lenses, respectfully. Thus, for example, a control lens may take up 100 μg of a cationic agent from a packaging solution after 24 hours at room temperature and 97 μg (i.e. 97%) of the cationic agent can be extracted from the lens. If the corresponding test (2× autoclaved) lens takes up 120 μg of the cationic agent from the packaging solution, but only 108 μg (i.e. 90%) of the cationic agent is extracted using the same extraction method as for the control lens, then there is considered to be a 7% difference between the amount cationic agent extracted from control and test lenses.
Both εPLL and epinastine have primary amine groups, whereas olopatadine and ketotifen have none. […] TRIS buffer drops in pH with increased temperature, down to a pH of about 4.3 during autoclave. […] Thus, in one example, the packaging solution used in the method of manufacturing the contact lenses described herein is temperature-sensitive. By temperature-sensitive, it is meant that the pH of the packaging solution drops by at least one (e.g a drop from pH 7.5 to pH 6.5) during autoclave at 120° C. for 30 minutes. In specific examples, the pH of the temperature-sensitive packaging solution drops during autoclave by at least 1.5, 2.0, or 2.5. Exemplary temperature-sensitive buffers include {[tris(hydroxymethyl)methyl]amino}propanesulfonic acid (TAPS), N,N-bis(21-hydroxyethyl)glycine (Bicine), tris(hycroxymethyl)methylamine (TRIS), N-tris(hydroxymethyl)methylglycine (Tricine), {[tris(hydroxymethyl)methyl]amino}ethanesulfonic acid (TES), 3-(N-morpholino)propanesulfonic acid (MOPS), and the like. […] In one such example, the packaging solution comprises a TRIS buffer. In a further example, the cationic agent comprises a primary amine. In yet a further example, the cationic agent is epinastine or εPLL and the packaging solution comprises a TRIS buffer.

[2] = for % of the epinastine taken up by the lens that released (extracted): PBS
Experimental: as §1
The packaged lenses were either autoclaved once or twice for 20 minutes at 120° C. and then kept at room temperature overnight, or kept at room temperature overnight without autoclaving. 1.2 ml PBS comprising 200 μg/ml epinastine HCL was autoclaved once or twice in a glass vial without a lens (autoclave control solution).
Each lens was blotted dry with lint-free paper, and placed in a vial containing 10 ml of an extraction medium consisting of 60 parts of 0.3% triethylamine in deionized (pH adjusted to 4.0 using phosphoric acid) and 40 parts methanol. The vials were sonicated for 30 minutes at room temperature. The lens were removed from the extraction solution and transferred to individual vials containing 5 ml of fresh extraction medium and sonicated again for 30 minutes. For each lens, the extraction media was combined to obtain 15 ml extraction medium for each lens and the amount of epinastine extracted from each lens was measured by HPLC.
The study was repeated using silicone hydrogel contact lenses prepared according to Example 1 and packaged in TRIS buffer (described above) comprising 150 μg/ml epinastine. The lenses were autoclaved 0-3 times each.

[3] = Autoclave stability of εPLL in PBS or TRIS buffered saline by HPLC; type: physicochemical; conditions: 500 ppm εPLL, no lens
Experimental: […] The samples were tested by HPLC at a sufficient resolution to achieve a discernable peak for each molecular weight fraction of the εPLL.

[4] = Autoclave # 0, silicone hydrogel lens, TRIS buffer with 150 μg/ml epinastine
[5] = Autoclave # 1x, silicone hydrogel lens, TRIS buffer with 150 μg/ml epinastine
[6] = Autoclave # 2x, silicone hydrogel lens, TRIS buffer with 150 μg/ml epinastine
[7] = Autoclave # 3x, silicone hydrogel lens, TRIS buffer with 150 μg/ml epinastine
[8] = Ocufilcon D lens, Autoclaved, PBS with 200 μg/ml epinastine HCl
[9] = Ocufilcon D lens, Non-Autoclaved, PBS with 200 μg/ml epinastine HCl
[10] = Silicone hydrogel lens (2x autoclave), PBS with 200 μg/ml epinastine HCl
[11] = Silicone hydrogel lens, Autoclaved, PBS with 200 μg/ml epinastine HCl
[12] = Silicone hydrogel lens, Non-Autoclaved, PBS with 200 μg/ml epinastine HCl
[13] = TBS, 9 autoclaves (so in the source)

NC1=NCC2c3ccccc3Cc3ccccc3N12 (stereo not drawn) [epinastine]
autoclave stability ([1]; in PBS): not autoclave-stable
autoclave stability ([1]; in TRIS buffer): autoclave-stable
% Δ [2, 4]: 0.2%
Extracted Amt. [2, 4]: 148.1 µg
Δ [2, 4]: 0.3 µg
% Δ [2, 5]: 1.3%
Extracted Amt. [2, 5]: 148.6 µg
Δ [2, 5]: 1.9 µg
% Δ [2, 6]: 1.3%
Extracted Amt. [2, 6]: 145.4 µg
Δ [2, 6]: 1.9 µg
% Δ [2, 7]: 3.0%
Extracted Amt. [2, 7]: 85.9 µg
Δ [2, 7]: 2.6 µg
% Δ [2, 8]: 7%
Extr. Amt. [2, 8]: 240.4 µg
Δ (uptake minus extracted) [2, 8]: 18.5 µg
% Δ [2, 9]: 2%
Extr. Amt. [2, 9]: 243.5 µg
Δ (uptake minus extracted) [2, 9]: 5.6 µg
% Δ [2, 10]: 18%
Extr. Amt. [2, 10]: 163.4 µg
Δ (uptake minus extracted) [2, 10]: 36.3 µg
% Δ [2, 11]: 10%
Extr. Amt. [2, 11]: 184.5 µg
Δ (uptake minus extracted) [2, 11]: 20.1 µg
% Δ [2, 12]: 1%
Extr. Amt. [2, 12]: 181.7 µg
Δ (uptake minus extracted) [2, 12]: 1.3 µg
% of the epinastine taken up by the lens that released (extracted) ([2]; autoclaved ocufilcon D lens): about 93%
% of the epinastine taken up by the lens that released (extracted) ([2]; autoclaved silicone hydrogel lens): ~90%
% of the epinastine taken up by the lens that released (extracted) ([2]; non-autoclaved control ocufilcon D lens): 98%
% of the epinastine taken up by the lens that released (extracted) ([2]; non-autoclaved control silicone hydrogel lens): 99%
% of the epinastine taken up by the lens that released (extracted) ([2]; silicone hydrogel lens autoclaved a second time): about 82%

CN1CCC(=C2c3ccccc3CC(=O)c3sccc32)CC1 [ketotifen fumarate]
autoclave stability [1]: autoclave-stable

CN(C)CC/C=C1/c2ccccc2COc2ccc(CC(=O)O)cc21 [olopatadine HCl]
autoclave stability [1]: autoclave-stable

epsilon poly-1-lysine [εPLL]
autoclave stability ([1]; in PBS): not autoclave-stable
autoclave stability ([1]; in TRIS buffer): autoclave-stable
Total # peaks ([3]; PBS, 0 autoclaves): 23
Total peak area ([3]; PBS, 0 autoclaves): 16005557
% Area (relative to non-autoclaved) ([3]; PBS, 2 autoclaves): 91%
Total # peaks ([3]; PBS, 2 autoclaves): 28
Total peak area ([3]; PBS, 2 autoclaves): 14566887
% Area (relative to non-autoclaved) ([3]; PBS, 4 autoclaves): 90%
Total # peaks ([3]; PBS, 4 autoclaves): 28
Total peak area ([3]; PBS, 4 autoclaves): 14468122
% Area (relative to non-autoclaved) ([3]; TBS, 2 autoclaves): 99%
Total # peaks ([3]; TBS, 2 autoclaves): 27
Total peak area ([3]; TBS, 2 autoclaves): 14636372
% Area (relative to non-autoclaved) ([3]; TBS, 4 autoclaves): 98%
Total # peaks ([3]; TBS, 4 autoclaves): 27
Total peak area ([3]; TBS, 4 autoclaves): 14476291
Total # peaks [3, 13]: 23
Total peak area [3, 13]: 14800289
